The text below walks through data of patent US20100184113A1, “CONTROLLING OSTEOGENESIS BY INHIBITION OF OSTEOGENIC SUPPRESSORS” (The Scripps Research Institute Office of Patent Counsel, priority 2006, published 2010).

Common to all, as to format: cell-based, human
Data set [1] has as its system hMSCs. Briefly: Adipogenic differentiation of hMSCs, Oil Red O staining. The following applies: for cell fate commitment osteogenic vs adipogenic: compound combined with the OS media; for differentiation of hMSCs into mature adipocytes: cAMP analog combined with dexamethasone; for adipogenic differentiation of hMSCs, cAMP-raising compounds: compound treatment, especially in the presence of dexamethasone (FIG. 7b). The method, then: Cells were rinsed with PBS twice, fixed in 10% formalin solution for 20 minutes, rinsed with PBS twice and dH2O once, washed with propylene glycol for 5 minutes, and stained with Oil red in propylene glycol (12722A, Newcomer Supply) for 30 minutes. Cells were then washed with 85% propylene glycol for 5 minutes, rinsed with dH2O 3 times and preserved in 50% glycerol.
(§1) 8-CPT-cAMP, Na (cat# 116812), 5-Iodotubercidin (cat# 407900), Prostaglandin E2 (PGE2, cat# 538904), SB 202190 (cat# 559388) and U0126 (cat# 662005) were purchased from Calbiochem; N6,2′-O-Dibutyryl-cAMP (cat# D0260-5MG), forskolin (cat# F6886), ascorbic acid 2-phosphate (cat# 49752-10G), (3-glycerophosphate (G-6251), dexamethasone (D8893), 3-isobutyl-1-methylxanthine (IBMX, 15879) and Insulin (19278) were purchased from Sigma/Aldrich/Fluka.
Bone cell maturation is accompanied by extracellular matrix (ECM) mineralization (John Bilezikian et al., Principles of bone biology, Vol 1, 2nd edn: Academic Press) (2002)). To examine whether the osteogenic differentiation of hMSCs induced by the hit siRNAs can further proceed to the maturation stage, hit siRNA treated cells were cultured for 20 days. […] These observations are consistent with the conclusion that the targeted genes of the ten effective hit siRNAs not only play inhibitory roles in osteogenic specification of hMSCs, but also in bone cell maturation. […] Furthermore, in osteoporotic patients, the number of adipocytes was increased in the marrow, implying a change of cell fate disposition from osteoblast lineage to adipocyte lineage (Justesen, J. et al., Biogerontology 2:165-171 (2001); Meunier, P. et al., Clin Orthop Relat Res 80:147-154 (1971)). We therefore examined the effect of our hit siRNAs on adipogenic differentiation of hMSCs by combined treatment with an adipogenic inducing cocktail (100 μg/ml BMX, 1 μM DEX and 10 μg/ml insulin).
(§2) Since the targeted genes are all positively involved in intracellular cAMP signaling, we tested the effect of two compounds of opposing function on cAMP production on osteogenic differentiation of hMSCs, ADK inhibitor 5-iodotubercidin and ADCY activator forskolin (Cottam, H. B. et al., J Med Chem 36:3424-3430 (1993); de Souza, N. J. et al., Med Res Rev 3:201-219 (1983)). […] ATP has been shown as a ligand for P2RY11 receptor (Communi et al., 1997). […] The present observations are consistent with the conclusion that […] in hMSCs, and vice versa.

The subject of data set [2] is hMSCs. Briefly: Compound treatment on OS-induced osteogenic differentiation of hMSCs (ALP / alizarin red staining). The following applies: for osteogenic differentiation of hMSCs combined with OS treatment: compound plus OS media. The protocol:
as §1, §2

Data set [3] deals with hMSCs. Briefly: Alizarin red staining for calcium phosphate deposits (ECM mineralization, bone cell maturation). Conditions: for intensity of alizarin red staining: OS treatment started three days after siRNA transfection and continued for 9 days (3+9OS), vs siCon.
In a further data set the test system is CREB. Briefly: Western blot of active (phosphorylated) CREB. The following applies: 3 days after transfection, vs siCon treated or untreated. The protocol:
Cell lyses buffer contains 20 mM Tris pH8.0, 1 mM EDTA, 150 mM NaCl and 0.5% NP-40, and before usage, protease inhibitor cocktail (Cat# p8340, Sigma, 1:100 dilution) and phosphatase inhibitor cocktail 2 (Cat# p5726, sigma, 1:100 dilution) were added. Proteins (60 μg/well) were separated in 12% Novex Tris-Glycine gel (Cat# EC6008 box, Invitrogen) and transferred to Nitrocellulose membrane (Cat# LC2001, Invitrogen) using the XCell II blot module system (Cat# E19051, Invitrogen). The membrane was blocked in 5% milk/PBST for 1 hour at room temperature, incubated over night at 4 degree with primary antibody, washed 3 times with PBST (0.05% Tween 20 in PBS), followed by one hour incubation with secondary antibody in 5% milk/PBST and 3 times wash with PBST at room temperature. For antibody against pCREB however, PBST was substituted with PBS in all steps except for the last one. Antibody-bound proteins were detected utilizing ECL Western blotting detection reagent (Amersham Biosciences).
Anti-phospho-CREB was purchased from Upstate Biotechnology (cat# 06-519); Anti-phospho-p38 was purchased from Cell signaling technology (cat# 9910).
To find out whether CREB (cAMP Responding Element Binding protein), a common downstream effector of cAMP signaling pathway, is involved in mediating cAMP signaling controlled differentiation of hMSCs, we checked the expression level of the active form of CREB proteins in cells 3 days after siP2RY11, siADK, siGNAS, siSLC12a2 or siCon transfection. […] To further examine the role of CREB in osteogenesis and adipogenesis, a synthetic 24-mer CRE decoy oligonucleotide that can compete with endogenous CRE enhancers for binding proteins was transfected into hMSCs (Park, Y. G. et al., J Biol Chem 274:1573-1580 (1999)), which were then subjected to the treatment of osteogenic or adipogenic induction media.
(In western blotting, separated proteins are transferred to a membrane and probed.)

In the case of `Nc1ncnc2c1ncn2[C@@H]1O[C@H](COP(=O)(O)OP(=O)(O)OP(=O)(O)O)[C@@H](O)[C@H]1O` [ATP], in the data set with hMSCs [1] (ATP treatment of OS-treated hMSCs), the “number of cells undergoing adipogenic differentiation” value is “slightly increases”. Further, the “siP2RY11 and siSLC12a2 induced osteogenesis in combination with OS” value in the data set with hMSCs [2] (OS and ATP added on third day after siRNA transfection, continued for a week, ALP staining) is on record as “dosage-dependent inhibitory effect”. Further, the “osteogenic differentiation of hMSCs combined with OS treatment” value (“osteogenic differentiation” for short) in the data set with hMSCs [2] is on record as “inhibited the OS-induced osteogenesis of hMSCs”. As to `CCCCC[C@H](O)/C=C/[C@H]1[C@H](O)CC(=O)[C@@H]1C/C=C\CCCC(=O)O` [PGE2, Prostaglandin E2], the “cell fate commitment osteogenic vs adipogenic” value in the data set with hMSCs [1] is on record as “could switch cell fate determination from osteogenic to adipogenic differentiation”. `CCCC(=O)Nc1ncnc2c1ncn2[C@@H]1O[C@@H]2COP(=O)(O)O[C@H]2[C@H]1OC(=O)CCC` [DB-cAMP, N6,2′-dibutyryl-cAMP]: in the data set on hMSCs [1], the “differentiation of hMSCs into mature adipocytes” value was “sufficient to differentiate hMSCs into mature adipocytes” and the “adipogenic differentiation of hMSCs, cAMP-raising compounds” value was “promoted hMSCs to undergo adipogenic differentiation”.

As for `CC(C)Cn1c(=O)n(C)c(=O)c2[nH]cnc21` [IBMX, 3-isobutyl-1-methylxanthine], in the data set with hMSCs [1], the “cell fate commitment osteogenic vs adipogenic” value is “could switch cell fate determination from osteogenic to adipogenic differentiation” and the “adipogenic differentiation of hMSCs, cAMP-raising compounds” value is listed as “promoted hMSCs to undergo adipogenic differentiation”. As for “siBCL212: siRNA CCCAGGUCUCCGAUGAACU targeting BCL2-like 2 (listed as RNA, chemistry not given here)”, in the data set with hMSCs [3], the “intensity of alizarin red staining” value was “modest enhancement”.

“siTBX3: siRNA UGCCAAAGAGGAUGUACAU targeting T-box 3 (ulnar mammary syndrome) (listed as RNA, further chemistry not given here)”: the “intensity of alizarin red staining” value in the data set with hMSCs [3] is “no significant effect”. Consider “siADK: siRNA GCCACACAAAGCAGCAACA targeting adenosine kinase (listed as RNA, chemistry not given here)”, for which the “level of pCREB protein” value with CREB is recorded as “increased”. In addition, the “intensity of alizarin red staining” value with hMSCs [3] is reported as “dramatically enhanced”. Moreover, the “intensity of alizarin red staining, sequential treatment” value in the data set on hMSCs [3] (siRNA (initial 2-4 days) followed by OS media, vs control treatment (FIG. 4)) is “clearly enhanced the intensity of alizarin red staining”. Turning to “siGNAS: siRNA UCGAAGAUUGAGGACUACU targeting GNAS complex locus (listed as RNA, chemistry not given here)”, the “level of pCREB protein” value in the data set on CREB is listed as “increased”. For the same molecule, in the data set on hMSCs [3], the “intensity of alizarin red staining” value is recorded as “dramatically enhanced”. In the case of “siBIRC4: siRNA UGUGCUACACAGUCAUUAC targeting baculoviral IAP repeat-containing 4 (listed as RNA, chemistry not given here)”, the “intensity of alizarin red staining” value in the data set on hMSCs [3] is reported as “weak enhancement”. For the molecule “siKCNT1: siRNA UGCGAGCCAAGAUGGACAA targeting potassium channel, subfamily T, member 1 (listed as RNA, chemistry not given here)”, the “intensity of alizarin red staining” value in the data set on hMSCs [3] is given as “dramatically enhanced”. With “siADCY8: siRNA GGAGAUCAACAAGCAUUCA targeting adenylate cyclase 8 (listed as RNA, chemistry not given here)”, the “intensity of alizarin red staining” value in the data set with hMSCs [3] is “weak enhancement”.

For `Oc1ccc(-c2nc(-c3ccncc3)c(-c3ccc(F)cc3)[nH]2)cc1` [SB202190], the “osteogenic differentiation” value in the data set on hMSCs [2] is “inhibited the osteogenic inducing effect of OS”. For the molecule “siGBDR1: siRNA CCCGAAAACAUUGCUAGCA targeting putative glialblastoma cell differentiation-related (listed as RNA, chemistry not given here)”, in the data set with hMSCs [3], the “intensity of alizarin red staining” value is given as “dramatically enhanced”.

For `COc1cccc(-c2cc(=O)c3ccccc3o2)c1N` [PD98059], the “osteogenic differentiation” value in the data set with hMSCs [2] is reported as “inhibited the osteogenic inducing effect of OS”.

In the case of “siP2RY11: siRNA UGCGGGUGCUCAACGUGGA targeting purinergic receptor P2Y, G-protein coupled, 11 (listed as RNA, chemistry not given here)”, the “level of pCREB protein” value in the data set with CREB is given as “increased”. The “intensity of alizarin red staining” value in the data set on hMSCs [3] is on record as “dramatically enhanced”. As for `Nc1ncnc2c1nc(Sc1ccc(Cl)cc1)n2[C@@H]1O[C@@H]2COP(=O)(O)O[C@H]2[C@H]1O` [8-CPT-cAMP], in the data set on hMSCs [1], the “differentiation of hMSCs into mature adipocytes” value is “sufficient to differentiate hMSCs into mature adipocytes”; the “cell fate commitment osteogenic vs adipogenic” value is “could switch cell fate commitment from osteogenic to adipogenic”; the “adipogenic differentiation of hMSCs, cAMP-raising compounds” value is “promoted hMSCs to undergo adipogenic differentiation”. “siSLC12a2: siRNA CCUCUUCGUGGCUACAUCU targeting solute carrier family 12, member 2 (listed as RNA, chemistry not given here)”: the “level of pCREB protein” value with CREB is “increased”. Moreover, the “intensity of alizarin red staining” value with hMSCs [3] is “dramatically enhanced”. With `Nc1ncnc2c1c(I)cn2[C@@H]1O[C@H](CO)[C@@H](O)[C@H]1O` [5-iodotubercidin], the “adipogenic differentiation of hMSCs under compound” value in the data set on hMSCs [1] (compound plus adipogenic inducing media, oil red o staining (FIG. 7a j-l)) is listed as “inhibited the adipogenic differentiation of hMSCs in a dose dependent manner”. In addition, in the data set on hMSCs [2], the “osteogenic differentiation” value is recorded as “significantly enhanced the osteogenic differentiation of hMSCs”.
